According to patent US4331670A (priority 1979, dated 1982):
In brackets after ≈: the same amount, converted by molar mass.

Tests used:
Rhizoctonia solani = assay: whole plant or invertebrate; assay type: in vivo, Rhizoctonia solani (rice plant, Chukyo Asahi); conditions: in Oryza sativa, 120 h, read-out: Preventive value
[1] = test system: Penicillium funiculosum IFO 6354; assay: Test 8: MIC by agar dilution process; assay type: cell-based; conditions: Talaromyces funiculosus, IFO6354, 168 h; Sabouraud's agar medium; 1 week
Procedure: (§1) Each minimum growth inhibition concentration (MIC) of Compound No. 16 to various microorganisms was measured by the agar dilution process. In the cases of bacteria, the results were observed 24 hours after the inoculation and in the cases of fungi, the results were observed 1 week after the inoculation.

[2] = test system: Aureobasidium pullulans IFO 6353; assay: Test 8: MIC by agar dilution process; assay type: cell-based; conditions: IFO6353, 168 h, Sabouraud's agar medium, 1 week
Procedure: as §1

[3] = test system: Penicillium citrium IFO 6352; assay: Test 8: MIC by agar dilution process; assay type: cell-based; conditions: IFO6352, 168 h, Sabouraud's agar medium, 1 week
Procedure: as §1

[4] = test system: Staphylococcus aureus 209P; assay: Test 8: MIC by agar dilution process; assay type: cell-based; conditions: Bouillon agar medium, 24 hours
Procedure: as §1

[5] = test system: Penicillium chrysogeum IFO 4626; assay: Test 8: MIC by agar dilution process; assay type: cell-based; conditions: IFO4626, 168 h, Sabouraud's agar medium, 1 week
Procedure: as §1

[6] = test system: Aspergillum niger IFO 6341; assay: Test 8: MIC by agar dilution process; assay type: cell-based; conditions: 168 h; Sabouraud's agar medium; 1 week
Procedure: as §1

[7] = test system: Aspergillum flavus IFO 6343; assay: Test 8: MIC by agar dilution process; assay type: cell-based; conditions: 168 h; Sabouraud's agar medium; 1 week
Procedure: as §1

[8] = test system: Proteus morganii IFO 3848; assay: Test 8: MIC by agar dilution process; assay type: cell-based; conditions: Morganella morganii, IFO3848; Bouillon agar medium; 24 hours
Procedure: as §1

[9] = test system: Aspergillum fumigatus IFO 4057; assay: Test 8: MIC by agar dilution process; assay type: cell-based; conditions: 168 h; Sabouraud's agar medium; 1 week
Procedure: as §1

Trametes sanguinea = assay: Test 8: MIC by agar dilution process; assay type: cell-based; conditions: 168 h, Sabouraud's agar medium, 1 week
Procedure: as §1

Penicillium italicum = assay: Test 8: MIC by agar dilution process; assay type: cell-based; conditions: 168 h, Sabouraud's agar medium, 1 week
Procedure: as §1

[10] = test system: Gibberella fujikuroi IFO 6349; assay: Test 8: MIC by agar dilution process; assay type: cell-based; conditions: Fusarium fujikuroi, IFO6349, 168 h; Sabouraud's agar medium; 1 week
Procedure: as §1

[11] = test system: Myrothecium verrucaria IFO 6133; assay: Test 8: MIC by agar dilution process; assay type: cell-based; conditions: Albifimbria verrucaria, IFO6133, 168 h; Sabouraud's agar medium; 1 week
Procedure: as §1

[12] = test system: Gliocladium virens IFO 9166; assay: Test 8: MIC by agar dilution process; assay type: cell-based; conditions: Trichoderma virens, IFO9166, 168 h; Sabouraud's agar medium; 1 week
Procedure: as §1

Pseudomonas aeruginosa = assay: Test 8: MIC by agar dilution process; assay type: cell-based; conditions: Bouillon agar medium, 24 hours
Procedure: as §1

[13] = test system: Serratia marcescens IFO 12648; assay: Test 8: MIC by agar dilution process; assay type: cell-based; conditions: IFO12648, Bouillon agar medium, 24 hours
Procedure: as §1

[14] = test system: Chaetomium globosum IFO 6347; assay: Test 8: MIC by agar dilution process; assay type: cell-based; conditions: IFO6347, 168 h, Sabouraud's agar medium, 1 week
Procedure: as §1

Escherichia coli = assay: Test 8: MIC by agar dilution process; assay type: cell-based; conditions: Bouillon agar medium, 24 hours
Procedure: as §1

[15] = test system: Klebsiella pneumoniae IFO 3512; assay: Test 8: MIC by agar dilution process; assay type: cell-based; conditions: IFO3512, Bouillon agar medium, 24 hours
Procedure: as §1

Bacillus subtilis PC1219 = assay: Test 8: MIC by agar dilution process; assay type: cell-based; conditions: Bouillon agar medium, 24 hours
Procedure: as §1

[16] = test system: Salmonella typhimurium IFO 12529; assay: Test 8: MIC by agar dilution process; assay type: cell-based; conditions: Salmonella enterica; Bouillon agar medium; 24 hours
Procedure: as §1

Pyricularia orzae = assay: whole plant or invertebrate; assay type: in vivo, Pyricularia orzae (rice plant, Chukyo Asahi); conditions: in Oryza sativa, 120 h, read-out: Protective value
Botrytis cinerea = assay: Test 9: protective value on cucumber inoculated with Botrytis cinerea; assay type: in vivo, Botrytis cinerea (cucumber plant, Suyo); conditions: 72 h, 250 ppm, 10 ml sprayed, lesion length three days after inoculation
Method in brief: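 Cucumber at one-leaf stage sprayed with active ingredient at 250 ppm, kept in a greenhouse at 24–25 °C for one day, then inoculated with a PDA-grown Botrytis cinerea agar disc. Lesion length measured 3 days after inoculation and converted to protective value; some comparisons used lower concentrations.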

Sphaerotheca fuliginea = assay: whole plant or invertebrate; assay type: in vivo, Sphaerotheca fuliginea (cucumber plant, Suyo); conditions: Podosphaera fuliginea, in Cucumis sativus, 240 h; read-out: Protective value

`O=[N+]([O-])c1cc(C(F)(F)F)c(Cl)c([N+](=O)[O-])c1Nc1c(Cl)cncc1Cl` [Compound No. 16] was tested, and the pest or weed control at 100 ppm (Rhizoctonia solani) was 100%, the MIC [1] was 6.25 mg/L (≈ 14.5 µM) and the MIC [2] was 6.25 mg/L (≈ 14.5 µM). It also gave an MIC [3] of 6.25 mg/L (≈ 14.5 µM), an MIC [4] of less than 0.2 mg/L and an MIC [5] of 3.12 mg/L (≈ 7.23 µM). The MIC [6] was 3.12 mg/L (≈ 7.23 µM), the MIC [7] was 6.25 mg/L (≈ 14.5 µM) and the MIC [8] was 6.25 mg/L (≈ 14.5 µM). The MIC [9] was 6.25 mg/L (≈ 14.5 µM), the MIC (Trametes sanguinea) was 6.25 mg/L (≈ 14.5 µM) and the MIC (Penicillium italicum) was 3.12 mg/L (≈ 7.23 µM). It also gave an MIC [10] of 12.5 mg/L (≈ 29 µM), an MIC [11] of 6.25 mg/L (≈ 14.5 µM) and an MIC [12] of 12.5 mg/L (≈ 29 µM). It also gave an MIC (Pseudomonas aeruginosa) of 12.5 mg/L (≈ 29 µM), an MIC [13] of 6.25 mg/L (≈ 14.5 µM) and an MIC [14] of 3.12 mg/L (≈ 7.23 µM). For the same compound, the MIC (Escherichia coli) was 12.5 mg/L (≈ 29 µM), the MIC [15] was 12.5 mg/L (≈ 29 µM) and the MIC (Bacillus subtilis PC1219) was less than 0.2 mg/L. For the same compound, the MIC [16] was 6.25 mg/L (≈ 14.5 µM), the pest or weed control at 100 ppm (Pyricularia orzae) was 100% and the pest or weed control at 250 ppm (Botrytis cinerea) was 100%. The pest or weed control at 500 ppm (Sphaerotheca fuliginea) was 100%.
